Here are results for eleven compounds from PubChem BioAssay (NCI).

Test systems include ACHN renal; CCRF-CEM leukemia; COLO 205 colon; K-562 leukemia; M14 melanoma; MDA-N; NCI-H23 lung; NCI-H522 lung; OVCAR-8 ovarian; PC-3 prostate; RPMI-8226 leukemia; SF-268 CNS; SK-MEL-2 melanoma.
What all share (assay): NCI-60 cell line screen, 48 h

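Tested at 5 concentrations; 48 h exposure; 96-well plates; endpoints linearly interpolated, else capped at highest concentration. TGI: concentration producing complete growth inhibition.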 A value given as a limit tells only on which side of the number the result lay.

For `O=C(O)c1ccccc1C(=O)Nn1cnnc1`, the TGI in the test on ACHN renal, in the test on CCRF-CEM leukemia, in the test on COLO 205 colon, in the test with K-562 leukemia, in the test on M14 melanoma and in the test on MDA-N was greater than 100 µM each time. Moreover, the TGI with NCI-H23 lung, in the test with NCI-H522 lung, in the test with OVCAR-8 ovarian, in the test on PC-3 prostate, in the test on RPMI-8226 leukemia and with SF-268 CNS was greater than 100 µM each time. Further, the TGI with SK-MEL-2 melanoma was greater than 100 µM.
Regarding `[O-][n+]1onc(-c2ccccc2)c1CN1CCOCC1`, the TGI in the test with ACHN renal, in the test on CCRF-CEM leukemia, in the test on COLO 205 colon, with K-562 leukemia, with M14 melanoma and with MDA-N was greater than 100 µM in each case. In addition, the TGI with NCI-H23 lung, with NCI-H522 lung, in the test on OVCAR-8 ovarian, with PC-3 prostate, in the test on RPMI-8226 leukemia and in the test with SF-268 CNS was greater than 100 µM in each case. Also, in the test with SK-MEL-2 melanoma, the TGI is greater than 100 µM.
For the compound `O=c1oc2ccccc2c(O)c1C(c1ccc(/C=C/c2ccccc2)cc1)c1c(O)c2ccccc2oc1=O`, the TGI in the test on ACHN renal was 35.6 µM; with CCRF-CEM leukemia, greater than 100 µM; in the test with COLO 205 colon, 71.8 µM; in the test on K-562 leukemia, greater than 100 µM; in the test on MDA-N, 43.9 µM; in the test on NCI-H23 lung it was greater than 100 µM. Besides, the TGI in the test on NCI-H522 lung is 49.1 µM; in the test on OVCAR-8 ovarian, 43.8 µM; with PC-3 prostate, greater than 100 µM; in the test on RPMI-8226 leukemia it was greater than 100 µM; with SF-268 CNS, 64.9 µM; in the test on SK-MEL-2 melanoma, greater than 100 µM.
In the case of `OC(C/C(=N\N1CCCCC1)c1cccs1)(C(F)(F)F)C(F)(F)F`, the TGI in the test with ACHN renal, in the test on CCRF-CEM leukemia, in the test with COLO 205 colon, in the test with K-562 leukemia, in the test on M14 melanoma and with MDA-N was greater than 10 µM throughout. Besides, the TGI with NCI-H23 lung, in the test on NCI-H522 lung, with OVCAR-8 ovarian, with PC-3 prostate, in the test on RPMI-8226 leukemia and with SF-268 CNS was greater than 10 µM in each case. In addition, the TGI in the test on SK-MEL-2 melanoma was greater than 10 µM.
In the case of `CCOC(=O)C1C(c2ccc(OC)cc2)c2c([nH][nH]c2=O)CC1(O)OCC` (stereo unspecified), the TGI with ACHN renal, in the test on CCRF-CEM leukemia, in the test on COLO 205 colon, in the test with M14 melanoma, in the test with MDA-N and with NCI-H23 lung was greater than 100 µM each time. Also, the TGI in the test with NCI-H522 lung, with OVCAR-8 ovarian, in the test on PC-3 prostate, in the test on RPMI-8226 leukemia, in the test on SF-268 CNS and in the test with SK-MEL-2 melanoma was greater than 100 µM throughout.
On to `NC(N)=N/N=C/c1c(-c2ccc([N+](=O)[O-])cc2)nc2n1CCS2`, for which the TGI was 30.7 µM in the test on ACHN renal; 11.8 µM with CCRF-CEM leukemia; 7.8 µM in the test on COLO 205 colon; 22.6 µM in the test on K-562 leukemia; 30.2 µM in the test with M14 melanoma; 26.5 µM in the test on MDA-N. In addition, the TGI is 31.3 µM in the test with NCI-H23 lung; 29.4 µM in the test on NCI-H522 lung; 29.2 µM in the test on OVCAR-8 ovarian; 27.7 µM with PC-3 prostate; greater than 63.3 µM with RPMI-8226 leukemia; 25.4 µM in the test on SF-268 CNS. The TGI with SK-MEL-2 melanoma was found to be 22 µM.
In the case of `Nc1cn(Cc2ccccc2)c2nc(/C=C3/C=CC=CC3=O)c(O)n12`, the TGI with ACHN renal, in the test with CCRF-CEM leukemia, in the test with COLO 205 colon, in the test with K-562 leukemia, in the test on M14 melanoma and in the test with MDA-N was greater than 100 µM throughout. The TGI with NCI-H23 lung, in the test with NCI-H522 lung, with OVCAR-8 ovarian, in the test with PC-3 prostate, in the test with RPMI-8226 leukemia and in the test on SF-268 CNS was greater than 100 µM throughout. The TGI in the test on SK-MEL-2 melanoma is greater than 100 µM.
`C=C1CC(C)(COc2ccc3ccc(=O)oc3c2)OC1=O` (stereo unspecified): the TGI was 11.2 µM in the test with ACHN renal; 5.11 µM in the test with CCRF-CEM leukemia; 4.42 µM in the test on COLO 205 colon; 32.1 µM in the test with K-562 leukemia; 4.97 µM in the test on M14 melanoma; 13.8 µM with MDA-N. The TGI in the test with NCI-H23 lung was 12.3 µM; in the test with NCI-H522 lung, 2.84 µM; in the test on OVCAR-8 ovarian it was 19.7 µM; in the test with PC-3 prostate, 16.2 µM; in the test with RPMI-8226 leukemia it was 4.7 µM; in the test on SF-268 CNS, 33.5 µM. For the same compound, in the test with SK-MEL-2 melanoma, the TGI was 8.8 µM.
As for `COc1ccc(-c2c(CN3CCOCC3)sc3nc4ccccc4n23)cc1`, the TGI was greater than 100 µM in the test with ACHN renal; 56.2 µM in the test with CCRF-CEM leukemia; 49.4 µM in the test with COLO 205 colon; greater than 28.7 µM in the test with K-562 leukemia; greater than 100 µM in the test with M14 melanoma; 5.38 µM in the test on MDA-N. Further, the TGI with NCI-H23 lung was greater than 100 µM; with NCI-H522 lung, greater than 20.2 µM; in the test with OVCAR-8 ovarian, greater than 100 µM; in the test with PC-3 prostate it was greater than 67.4 µM; with RPMI-8226 leukemia, 23.4 µM; with SF-268 CNS, 98.2 µM. The same compound showed a TGI with SK-MEL-2 melanoma greater than 100 µM.
Take `O=C1c2c(ccc3c2CCC3)CC12Cc1cc3c(cc1C2)CCC3`: the TGI with ACHN renal, in the test on CCRF-CEM leukemia, in the test on COLO 205 colon, in the test on K-562 leukemia, in the test with M14 melanoma and in the test with MDA-N was greater than 100 µM throughout. Moreover, the TGI in the test with NCI-H23 lung, in the test with NCI-H522 lung, in the test on OVCAR-8 ovarian, in the test with PC-3 prostate, in the test with RPMI-8226 leukemia and in the test with SF-268 CNS was greater than 100 µM each time. Moreover, the TGI in the test with SK-MEL-2 melanoma was greater than 100 µM.
`CC(=O)OCC1OC(N2C(C)=C(C(C)=O)C(c3ccco3)C(C#N)=C2S)C(OC(C)=O)C(OC(C)=O)C1OC(C)=O` (stereo unspecified): the TGI with ACHN renal, in the test with CCRF-CEM leukemia, in the test on COLO 205 colon, with K-562 leukemia, with M14 melanoma and in the test on MDA-N was greater than 100 µM throughout. Also, the TGI in the test on NCI-H23 lung, with NCI-H522 lung, with OVCAR-8 ovarian, in the test with PC-3 prostate, in the test on RPMI-8226 leukemia and with SF-268 CNS was greater than 100 µM in each case. The TGI in the test on SK-MEL-2 melanoma is greater than 100 µM.
